Laboratory results: patent US20240092835A1, “NOVEL PEPTIDES CAPABLE OF ALTERING NK CELL ACTIVITY” (Massachusetts Institute of Technology, priority 2022, published 2024)

Assays:
NKG2A+/NKG2C− NK cells = experiment: NK cell activation markers in NKG2A+/NKG2C- NK cells incubated with peptide and K562 expressing HLA-E (inhibition); type: cell-based, human; settings: for percentage of CCL3+ NK cells / percentage of CD107a+ NK cells / percentage of IFNG+ NK cells / percentage of TNF+ NK cells: NKG2A+/NKG2C- NK cells, K562/HLA-E
How it was run: (§1)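 Human myelogenous leukemia K562 cells displaying HLA-E carry the test peptides (human or HCMV origin) and are presented to NK cells; surface activation markers are scored by percent positive cells.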

NKG2A−/NKG2C+ NK cells = experiment: NK cell activation markers in NKG2A-/NKG2C+ NK cells incubated with peptide and K562 expressing HLA-E (activation); type: cell-based, human; settings: for effect on NKG2A−/NKG2C+ NK cell activation (in words): K562 expressing HLA-E, CD107a, IFNG, TNF, CCL3; for percentage of CCL3+ NK cells / percentage of CD107+ NK cells / percentage of IFNG+ NK cells / percentage of TNF+ NK cells: NKG2A-/NKG2C+ NK cells, K562/HLA-E
How it was run: as §1

NKG2A−/NKG2C− NK cells = experiment: NK cell activation markers in control NKG2A-/NKG2C- NK cells incubated with peptide and K562 expressing HLA-E; type: cell-based, human
How it was run: as §1

HLA-E = molecular target: T1, HLA-E (Homo sapiens, UniProt P13747); experiment: HLA-E surface stabilization assay with RMA-S/HLA-E cells; type: cell-based; settings: 30 μM peptide, 16 hours, anti-HLA-E antibody
T1 construct: expressed in transfected cells; host or cells: RMA-S/HLA-E cells (antigen processing-defective lymphoma cell line)
Method: HLA-E surface expression was assessed by measuring geometric mean fluorescence intensity (GeoMFI) in RMA-S cells following immunofluorescence staining with an anti-HLA-E antibody (Table 14). Increased GeoMFI was indicative of increased HLA-E surface expression stability following novel peptide exposures (FIG. 3).

HLA-E surface expression stability (GeoMFI) (HLA-E; Trial 1): 3783 GeoMFI
HLA-E surface expression stability (GeoMFI) (HLA-E; Trial 2): 4068 GeoMFI
HLA-E surface expression stability (GeoMFI) (HLA-E; Trial 3): 4205 GeoMFI
HLA-E surface expression stability (GeoMFI) (HLA-E; Trial 4): 4760 GeoMFI
Sequence: VMPPRTLLL [human15, peptide HLA-A 3-11 derived from the human proteome]
effect on NKG2A+/NKG2C− NK cell inhibition (in words) (NKG2A+/NKG2C− NK cells; K562 expressing HLA-E, CD107a, IFNG, TNF, CCL3): strong inhibitory
percentage of CCL3+ NK cells (NKG2A+/NKG2C− NK cells; Trial 1): 1.79%
percentage of CD107a+ NK cells (NKG2A+/NKG2C− NK cells; Trial 1): 0.49%
percentage of IFNG+ NK cells (NKG2A+/NKG2C− NK cells; Trial 1): 0.05%
percentage of TNF+ NK cells (NKG2A+/NKG2C− NK cells; Trial 1): 0.01%
percentage of CCL3+ NK cells (NKG2A+/NKG2C− NK cells; Trial 2): 1.6%
percentage of CD107a+ NK cells (NKG2A+/NKG2C− NK cells; Trial 2): 0.79%
percentage of IFNG+ NK cells (NKG2A+/NKG2C− NK cells; Trial 2): 0.3%
percentage of TNF+ NK cells (NKG2A+/NKG2C− NK cells; Trial 2): 0.27%
percentage of CCL3+ NK cells (NKG2A+/NKG2C− NK cells; Trial 3): 1.12%
percentage of CD107a+ NK cells (NKG2A+/NKG2C− NK cells; Trial 3): 0.73%
percentage of IFNG+ NK cells (NKG2A+/NKG2C− NK cells; Trial 3): 0.44%
percentage of TNF+ NK cells (NKG2A+/NKG2C− NK cells; Trial 3): 0.19%
percentage of CCL3+ NK cells (NKG2A+/NKG2C− NK cells; Trial 4): 0.75%
percentage of CD107a+ NK cells (NKG2A+/NKG2C− NK cells; Trial 4): 0.75%
percentage of IFNG+ NK cells (NKG2A+/NKG2C− NK cells; Trial 4): 0.2%
percentage of TNF+ NK cells (NKG2A+/NKG2C− NK cells; Trial 4): 0.18%
percentage of CCL3+ NK cells (NKG2A+/NKG2C− NK cells; Trial 5): 3.7%
percentage of CD107a+ NK cells (NKG2A+/NKG2C− NK cells; Trial 5): 1.04%
percentage of IFNG+ NK cells (NKG2A+/NKG2C− NK cells; Trial 5): 0.19%
percentage of TNF+ NK cells (NKG2A+/NKG2C− NK cells; Trial 5): 0.16%
percentage of CCL3+ NK cells (NKG2A+/NKG2C− NK cells; Trial 6): 2.09%
percentage of CD107a+ NK cells (NKG2A+/NKG2C− NK cells; Trial 6): 0.52%
percentage of IFNG+ NK cells (NKG2A+/NKG2C− NK cells; Trial 6): 0.24%
percentage of TNF+ NK cells (NKG2A+/NKG2C− NK cells; Trial 6): 0.05%
effect on NKG2A−/NKG2C+ NK cell activation (in words) (NKG2A−/NKG2C+ NK cells; listed as SEQ ID NO. 14): strong activating effects
effect on NKG2A−/NKG2C+ NK cell activation (in words) (NKG2A−/NKG2C+ NK cells; listed as h15): strong inhibitory and activating effects
percentage of CCL3+ NK cells (NKG2A−/NKG2C+ NK cells; Trial 1): 79.5%
percentage of CD107+ NK cells (NKG2A−/NKG2C+ NK cells; Trial 1): 78.4%
percentage of IFNG+ NK cells (NKG2A−/NKG2C+ NK cells; Trial 1): 66.7%
percentage of TNF+ NK cells (NKG2A−/NKG2C+ NK cells; Trial 1): 52.1%
percentage of CCL3+ NK cells (NKG2A−/NKG2C+ NK cells; Trial 2): 89.7%
percentage of CD107+ NK cells (NKG2A−/NKG2C+ NK cells; Trial 2): 86%
percentage of IFNG+ NK cells (NKG2A−/NKG2C+ NK cells; Trial 2): 79.9%
percentage of TNF+ NK cells (NKG2A−/NKG2C+ NK cells; Trial 2): 71.8%
percentage of CCL3+ NK cells (NKG2A−/NKG2C+ NK cells; Trial 3): 86.8%
percentage of CD107+ NK cells (NKG2A−/NKG2C+ NK cells; Trial 3): 88.2%
percentage of IFNG+ NK cells (NKG2A−/NKG2C+ NK cells; Trial 3): 78.8%
percentage of TNF+ NK cells (NKG2A−/NKG2C+ NK cells; Trial 3): 68.2%
percentage of CCL3+ NK cells (NKG2A−/NKG2C+ NK cells; Trial 4): 69%
percentage of CD107+ NK cells (NKG2A−/NKG2C+ NK cells; Trial 4): 68.9%
percentage of IFNG+ NK cells (NKG2A−/NKG2C+ NK cells; Trial 4): 60.9%
percentage of TNF+ NK cells (NKG2A−/NKG2C+ NK cells; Trial 4): 52.6%
percentage of CCL3+ NK cells (NKG2A−/NKG2C+ NK cells; Trial 5): 78.9%
percentage of CD107+ NK cells (NKG2A−/NKG2C+ NK cells; Trial 5): 78%
percentage of IFNG+ NK cells (NKG2A−/NKG2C+ NK cells; Trial 5): 71.9%
percentage of TNF+ NK cells (NKG2A−/NKG2C+ NK cells; Trial 5): 66.6%
percentage of CCL3+ NK cells (NKG2A−/NKG2C+ NK cells; Trial 6): 58.4%
percentage of CD107+ NK cells (NKG2A−/NKG2C+ NK cells; Trial 6): 56.2%
percentage of IFNG+ NK cells (NKG2A−/NKG2C+ NK cells; Trial 6): 44.1%
percentage of TNF+ NK cells (NKG2A−/NKG2C+ NK cells; Trial 6): 36.3%
percentage CCL3+ NK cells (NKG2A−/NKG2C− NK cells; Trial 1): 34%
percentage CD107+ NK cells (NKG2A−/NKG2C− NK cells; Trial 1): 25.7%
percentage TNF+ NK cells (NKG2A−/NKG2C− NK cells; Trial 1): 3.42%
percentage of IFNG+ NK cells (NKG2A−/NKG2C− NK cells; Trial 1): 15.5%
percentage CCL3+ NK cells (NKG2A−/NKG2C− NK cells; Trial 2): 55.5%
percentage CD107+ NK cells (NKG2A−/NKG2C− NK cells; Trial 2): 34.1%
percentage TNF+ NK cells (NKG2A−/NKG2C− NK cells; Trial 2): 9.68%
percentage of IFNG+ NK cells (NKG2A−/NKG2C− NK cells; Trial 2): 25.4%
percentage CCL3+ NK cells (NKG2A−/NKG2C− NK cells; Trial 3): 46.7%
percentage CD107+ NK cells (NKG2A−/NKG2C− NK cells; Trial 3): 43.7%
percentage TNF+ NK cells (NKG2A−/NKG2C− NK cells; Trial 3): 14.8%
percentage of IFNG+ NK cells (NKG2A−/NKG2C− NK cells; Trial 3): 34.7%
percentage CCL3+ NK cells (NKG2A−/NKG2C− NK cells; Trial 4): 34.3%
percentage CD107+ NK cells (NKG2A−/NKG2C− NK cells; Trial 4): 29.6%
percentage TNF+ NK cells (NKG2A−/NKG2C− NK cells; Trial 4): 10.3%
percentage of IFNG+ NK cells (NKG2A−/NKG2C− NK cells; Trial 4): 20.3%
percentage CCL3+ NK cells (NKG2A−/NKG2C− NK cells; Trial 5): 24.7%
percentage CD107+ NK cells (NKG2A−/NKG2C− NK cells; Trial 5): 18.9%
percentage TNF+ NK cells (NKG2A−/NKG2C− NK cells; Trial 5): 6.97%
percentage of IFNG+ NK cells (NKG2A−/NKG2C− NK cells; Trial 5): 14.7%
percentage CCL3+ NK cells (NKG2A−/NKG2C− NK cells; Trial 6): 26.4%
percentage CD107+ NK cells (NKG2A−/NKG2C− NK cells; Trial 6): 21.1%
percentage TNF+ NK cells (NKG2A−/NKG2C− NK cells; Trial 6): 5.43%
percentage of IFNG+ NK cells (NKG2A−/NKG2C− NK cells; Trial 6): 11.9%
